Measured values taken from ChEMBL document CHEMBL1201861, “Genomics of Drug Sensitity in Cancer screening data, Wellcome Trust Sanger Institute”.
Several values for one entry are separate records, joined by “and”; a condition that tells them apart may be missing. Equal values may be shown once.

Columns and labels:
Experiment in all cases: cells
COLO-741 = format: functional, cell-based, Homo sapiens
Description: SANGER: Inhibition of human COLO-741 cell growth in a cell viability assay.

CW-2 = format: functional, cell-based, Homo sapiens;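 further: growth inhibition of CW-2 cells, read out by a cell viability assay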
Description: SANGER: Inhibition of human CW-2 cell growth in a cell viability assay.

EFO-21 = format: functional, cell-based, Homo sapiens;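 further: growth inhibition of EFO-21 cells measured with a viability assay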
Description: SANGER: Inhibition of human EFO-21 cell growth in a cell viability assay.

ES4 = format: functional, cell-based, Homo sapiens;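 further: growth inhibition of human ES4 cells, read out by a cell viability assay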
Description: SANGER: Inhibition of human ES4 cell growth in a cell viability assay.

G-402 = format: functional, cell-based, Homo sapiens
Description: SANGER: Inhibition of human G-402 cell growth in a cell viability assay.

HCC1569 = format: functional, cell-based, Homo sapiens;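 further: growth inhibition of human HCC1569 cells, read out with a cell viability assay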
Description: SANGER: Inhibition of human HCC1569 cell growth in a cell viability assay.

HCC2218 = format: functional, cell-based; conditions: Homo sapiens;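 further: cell viability assay read-out, with IC50 given as the concentration that inhibits growth of the cell line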
Description: SANGER: Inhibition of human HCC2218 cell growth in a cell viability assay.

HCC 2998 = format: functional, cell-based, Homo sapiens;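 further: growth inhibition of human HCC2998 cells, measured with a cell viability read-out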
Description: SANGER: Inhibition of human HCC2998 cell growth in a cell viability assay.

HD-MY-Z = format: functional, cell-based, Homo sapiens;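 further: growth inhibition of HD-MY-Z cells, read out with a cell viability assay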
Description: SANGER: Inhibition of human HD-MY-Z cell growth in a cell viability assay.

HOP-92 = format: functional, cell-based, Homo sapiens;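 further: cell viability readout, with IC50 reflecting inhibition of HOP-92 cell growth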
Description: SANGER: Inhibition of human HOP-92 cell growth in a cell viability assay.

HTC-C3 = format: functional, cell-based, Homo sapiens;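 further: inhibition of cell growth, read out with a cell viability assay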
Description: SANGER: Inhibition of human HTC-C3 cell growth in a cell viability assay.

IGR-1 = format: functional, cell-based, Homo sapiens;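 further: growth inhibition of human IGR-1 cells, read out with a cell viability assay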
Description: SANGER: Inhibition of human IGR-1 cell growth in a cell viability assay.

J82 = format: functional, cell-based; conditions: Homo sapiens;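 further: growth inhibition of J82 cells, read out with a cell viability assay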
Description: SANGER: Inhibition of human J82 cell growth in a cell viability assay.

JAR = format: functional, cell-based, Homo sapiens;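 further: growth inhibition of human JAR cells determined with a cell viability assay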
Description: SANGER: Inhibition of human JAR cell growth in a cell viability assay.

KYSE-150 cell line = format: functional, cell-based, Homo sapiens;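 further: growth inhibition of human KYSE-150 cells, read out with a cell viability assay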
Description: SANGER: Inhibition of human KYSE-150 cell growth in a cell viability assay.

LU-139 = format: functional, cell-based; conditions: Homo sapiens
Description: SANGER: Inhibition of human LU-139 cell growth in a cell viability assay.

LXF-289 cell line = format: functional, cell-based, Homo sapiens
Description: SANGER: Inhibition of human LXF-289 cell growth in a cell viability assay.

MDA-MB-175-VII = format: functional, cell-based, Homo sapiens
ME-180 = format: functional, cell-based; conditions: Homo sapiens;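 further: cell viability assay measuring growth inhibition of ME-180 cells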
Description: SANGER: Inhibition of human ME-180 cell growth in a cell viability assay.

MEG-01 = format: functional, cell-based; conditions: Homo sapiens;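 further: growth inhibition of MEG-01 cells, read out by a cell viability assay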
Description: SANGER: Inhibition of human MEG-01 cell growth in a cell viability assay.

MIA PaCa-2 = format: functional, cell-based, Homo sapiens;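 further: growth inhibition of MIA PaCa-2 cells, read out with a cell viability assay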
Description: SANGER: Inhibition of human MIA-PaCa-2 cell growth in a cell viability assay.

MOLT-4 = format: functional, cell-based; conditions: Homo sapiens;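 further: growth inhibition of MOLT-4 cells, determined with a cell viability readout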
Description: SANGER: Inhibition of human MOLT-4 cell growth in a cell viability assay.

NCI-H1437 = format: functional, cell-based, Homo sapiens;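 further: growth inhibition of human NCI-H1437 cells, read out by a cell viability assay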
Description: SANGER: Inhibition of human NCI-H1437 cell growth in a cell viability assay.

NCI-H441 = format: functional, cell-based; conditions: Homo sapiens;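 further: growth inhibition of NCI-H441 cells, read out with a cell viability assay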
Description: SANGER: Inhibition of human NCI-H441 cell growth in a cell viability assay.

NCI-H446 = format: functional, cell-based; conditions: Homo sapiens;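 further: growth inhibition of NCI-H446 cells determined by a cell viability assay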
Description: SANGER: Inhibition of human NCI-H446 cell growth in a cell viability assay.

NCI-H520 = format: functional, cell-based, Homo sapiens;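 further: growth inhibition of NCI-H520 cells, measured by a cell viability assay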
Description: SANGER: Inhibition of human NCI-H520 cell growth in a cell viability assay.

SNU1 = format: functional, cell-based; conditions: Homo sapiens;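 further: growth inhibition of human NCI-SNU-1 cells, measured with a cell viability assay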
Description: SANGER: Inhibition of human NCI-SNU-1 cell growth in a cell viability assay.

SNU-5 = format: functional, cell-based; conditions: Homo sapiens;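 further: cell viability readout used to measure growth inhibition in human NCI-SNU-5 cells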
Description: SANGER: Inhibition of human NCI-SNU-5 cell growth in a cell viability assay.

NOS-1 = format: functional, cell-based, Homo sapiens;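 further: growth inhibition of the human NOS-1 cell line, read out with a cell viability assay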
Description: SANGER: Inhibition of human NOS-1 cell growth in a cell viability assay.

PA-1 = format: functional, cell-based, Homo sapiens;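 further: IC50 for suppression of PA-1 cell proliferation, determined with a cell viability read-out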
Description: SANGER: Inhibition of human PA-1 cell growth in a cell viability assay.

RCM-1 = format: functional, cell-based, Homo sapiens;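 further: growth inhibition of the RCM-1 line, determined with a cell viability readout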
Description: SANGER: Inhibition of human RCM-1 cell growth in a cell viability assay.

RMG-I = format: functional, cell-based, Homo sapiens;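 further: growth inhibition of human RMG-I cells, read out with a cell viability assay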
Description: SANGER: Inhibition of human RMG-I cell growth in a cell viability assay.

RPMI-8226 = format: functional, cell-based; conditions: Homo sapiens
Description: SANGER: Inhibition of human RPMI-8226 cell growth in a cell viability assay.

Ramos-2G6-4C10 = format: functional, cell-based; conditions: Homo sapiens;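 further: growth inhibition of the cell line, measured by a cell viability read-out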
Description: SANGER: Inhibition of human Ramos-2G6-4C10 cell growth in a cell viability assay.

SF-268 = format: functional, cell-based, Homo sapiens;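 further: growth inhibition of SF-268 cells determined with a cell viability assay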
Description: SANGER: Inhibition of human SF268 cell growth in a cell viability assay.

SW1990 = format: functional, cell-based, Homo sapiens;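 further: cell growth inhibition determined with a viability assay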
Description: SANGER: Inhibition of human SW1990 cell growth in a cell viability assay.

SW48 = format: functional, cell-based, Homo sapiens;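 further: growth inhibition of SW48 cells, read out with a cell viability assay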
Description: SANGER: Inhibition of human SW48 cell growth in a cell viability assay.

SW780 = format: functional, cell-based, Homo sapiens;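 further: growth inhibition of the cells, read out with a cell viability assay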
Description: SANGER: Inhibition of human SW780 cell growth in a cell viability assay.

T47D = format: functional, cell-based, Homo sapiens;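 further: growth inhibition of human T47D cells, measured with a cell viability assay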
Description: SANGER: Inhibition of human T47D cell growth in a cell viability assay.

T98G = format: functional, cell-based, Homo sapiens;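 further: growth inhibition of T98G cells, read out by a cell viability assay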
Description: SANGER: Inhibition of human T98G cell growth in a cell viability assay.

639-V = format: functional, cell-based, Homo sapiens;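 further: growth inhibition of 639-V cells, read out with a cell viability assay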
Description: SANGER: Inhibition of human 639-V cell growth in a cell viability assay.

A-375 = format: functional, cell-based, Homo sapiens;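 further: growth inhibition of A375 cells, read out with a cell viability assay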
Description: SANGER: Inhibition of human A375 cell growth in a cell viability assay.

ACHN = format: functional, cell-based, Homo sapiens;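 further: cell viability read-out used to gauge how strongly growth of human ACHN cells is suppressed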
Description: SANGER: Inhibition of human ACHN cell growth in a cell viability assay.

BFTC-909 = format: functional, cell-based, Homo sapiens
Description: SANGER: Inhibition of human BFTC-909 cell growth in a cell viability assay.

BPH-1 = format: functional, cell-based, Homo sapiens;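 further: cell viability assay measuring growth inhibition of human BPH-1 cells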
Description: SANGER: Inhibition of human BPH-1 cell growth in a cell viability assay.

CAKI-1 = format: functional, cell-based, Homo sapiens;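 further: growth inhibition of CAKI-1 cells, measured by a cell viability assay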
Description: SANGER: Inhibition of human CAKI-1 cell growth in a cell viability assay.

U-118-MG = format: functional, cell-based, Homo sapiens
Description: SANGER: Inhibition of human U-118-MG cell growth in a cell viability assay.

VA-ES-BJ = format: functional, cell-based, Homo sapiens;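 further: growth inhibition of the VA-ES-BJ cell line, read out by a cell viability assay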
Description: SANGER: Inhibition of human VA-ES-BJ cell growth in a cell viability assay.

COLO-684 = format: functional, cell-based; conditions: Homo sapiens
Description: SANGER: Inhibition of human COLO-684 cell growth in a cell viability assay.

CP66-MEL = format: functional, cell-based, Homo sapiens;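 further: growth inhibition of CP66-MEL cells determined in a cell viability assay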
Description: SANGER: Inhibition of human CP66-MEL cell growth in a cell viability assay.

MFH-ino = format: functional, cell-based; conditions: Homo sapiens;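 further: growth inhibition of human MFH-ino cells, read out by a cell viability assay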
Description: SANGER: Inhibition of human MFH-ino cell growth in a cell viability assay.

NCI-H510A = format: functional, cell-based; conditions: Homo sapiens;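 further: growth inhibition of NCI-H510A cells, read out with a cell viability assay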
Description: SANGER: Inhibition of human NCI-H510A cell growth in a cell viability assay.

Measured: IC50

COc1cc(F)c(F)c(Nc2ccc(I)cc2F)c1NS(=O)(=O)C1(CC(O)CO)CC1 (centres undefined)
0.12 µM: A-375; Homo sapiens, A-375
0.683 µM: HOP-92; Homo sapiens, HOP-92
0.135 µM: BPH-1; Homo sapiens, BPH-1
0.915 µM: COLO-741; Homo sapiens, COLO-741
0.122 µM: HTC-C3; Homo sapiens, HTC-C3
> 5 µM: CW-2; Homo sapiens, CW-2 | EFO-21; Homo sapiens, EFO-21 | ES4; Homo sapiens, ES4 | G-402; Homo sapiens, G-402 | HCC1569; Homo sapiens, HCC1569 | HCC2218 | IGR-1; Homo sapiens, IGR-1 | J82 | JAR; Homo sapiens, JAR | LU-139 | MOLT-4 | NCI-H441 | NCI-H446 | NCI-H520; Homo sapiens, NCI-H520 | NOS-1; Homo sapiens, NOS-1 | PA-1; Homo sapiens, PA-1 | RMG-I; Homo sapiens, RMG-I | Ramos-2G6-4C10 | SF-268; Homo sapiens, SF-268 | SW1990; Homo sapiens, SW1990 | SW48; Homo sapiens, SW48 | T47D; Homo sapiens, T47D | T98G; Homo sapiens, T98G | 639-V; Homo sapiens, 639-V | ACHN; Homo sapiens, ACHN | BFTC-909; Homo sapiens, BFTC-909 | CAKI-1; Homo sapiens, CAKI-1 | U-118-MG; Homo sapiens, U-118-MG | VA-ES-BJ; Homo sapiens, VA-ES-BJ | COLO-684
1.24 µM: SNU1
0.136 µM: RCM-1; Homo sapiens, RCM-1
0.702 µM: NCI-H1437; Homo sapiens, NCI-H1437
1.75 µM: ME-180
0.886 µM: HD-MY-Z; Homo sapiens, HD-MY-Z
0.0869 µM: HCC 2998; Homo sapiens, HCC 2998
4.51 µM: SNU-5 | RPMI-8226
2.82 µM: MIA PaCa-2; Homo sapiens, MIA PaCa-2
3.54 µM: LXF-289 cell line; Homo sapiens, LXF-289
0.758 µM: SW780; Homo sapiens, SW780
3.4 µM: KYSE-150 cell line; Homo sapiens, KYSE-150
2.57 µM: MDA-MB-175-VII; Homo sapiens, MDA-MB-175-VII
0.786 µM: MEG-01

O=C1N=C(NCc2cccs2)S/C1=C\c1ccc2ncccc2c1
2.28 µM: 639-V; Homo sapiens, 639-V
> 5 µM: COLO-741; Homo sapiens, COLO-741 | CW-2; Homo sapiens, CW-2 | EFO-21; Homo sapiens, EFO-21 | ES4; Homo sapiens, ES4 | G-402; Homo sapiens, G-402 | HCC1569; Homo sapiens, HCC1569 | HCC2218 | HCC 2998; Homo sapiens, HCC 2998 | HD-MY-Z; Homo sapiens, HD-MY-Z | HOP-92; Homo sapiens, HOP-92 | HTC-C3; Homo sapiens, HTC-C3 | IGR-1; Homo sapiens, IGR-1 | J82 | JAR; Homo sapiens, JAR | KYSE-150 cell line; Homo sapiens, KYSE-150 | LU-139 | MDA-MB-175-VII; Homo sapiens, MDA-MB-175-VII | ME-180 | MEG-01 | MIA PaCa-2; Homo sapiens, MIA PaCa-2 | MOLT-4 | NCI-H1437; Homo sapiens, NCI-H1437 | NCI-H441 | NCI-H446 | NCI-H520; Homo sapiens, NCI-H520 | SNU-5 | NOS-1; Homo sapiens, NOS-1 | RCM-1; Homo sapiens, RCM-1 | RMG-I; Homo sapiens, RMG-I | RPMI-8226 | Ramos-2G6-4C10 | SF-268; Homo sapiens, SF-268 | SW1990; Homo sapiens, SW1990 | SW48; Homo sapiens, SW48 | SW780; Homo sapiens, SW780 | T47D; Homo sapiens, T47D | A-375; Homo sapiens, A-375 | ACHN; Homo sapiens, ACHN | BFTC-909; Homo sapiens, BFTC-909 | CAKI-1; Homo sapiens, CAKI-1 | U-118-MG; Homo sapiens, U-118-MG | VA-ES-BJ; Homo sapiens, VA-ES-BJ | COLO-684
1.37 µM: T98G; Homo sapiens, T98G
4.22 µM: LXF-289 cell line; Homo sapiens, LXF-289
0.731 µM: SNU1
2.97 µM: BPH-1; Homo sapiens, BPH-1
1.23 µM: PA-1; Homo sapiens, PA-1

Cc1cc([C@@H](C)Nc2ccccc2C(=O)O)c2nc(N3CCOCC3)cc(=O)n2c1 [AZD-6482]
> 5.12 µM and 4.58 µM: HOP-92; hop-92
2.2 µM: COLO-684
> 5.12 µM and 2.24 µM: ACHN; achn
> 5.12 µM: COLO-741; colo-741 | CP66-MEL; Homo sapiens, CP66-MEL | CP66-MEL; cp66-mel | CW-2; cw-2 | ES4; es4 | HCC2218 | HCC 2998; hcc 2998 | HD-MY-Z; hd-my-z | HTC-C3; Homo sapiens, HTC-C3 | HTC-C3; htc-c3 | IGR-1; igr-1 | JAR; jar | KYSE-150 cell line; kyse-150 | LU-139 | MDA-MB-175-VII; mda-mb-175-vii | ME-180 | MEG-01 | MFH-ino | MIA PaCa-2; mia paca-2 | MOLT-4 | NCI-H1437; nci-h1437 | NCI-H441 | NCI-H446 | NCI-H510A | NCI-H520; nci-h520 | SNU1 | SNU-5 | NOS-1; Homo sapiens, NOS-1 | NOS-1; nos-1 | RCM-1; rcm-1 | RMG-I; rmg-i | RPMI-8226 | Ramos-2G6-4C10 | SF-268; sf-268 | SW1990; sw1990 | SW48; Homo sapiens, SW48 | SW48; sw48 | SW780; sw780 | T98G; Homo sapiens, T98G | T98G; t98g | A-375; a-375 | BFTC-909; bftc-909 | VA-ES-BJ; Homo sapiens, VA-ES-BJ | VA-ES-BJ; va-es-bj
0.533 µM: T47D; Homo sapiens, T47D
1.63 µM and 4.78 µM: 639-V; 639-v
4.9 µM: BPH-1; Homo sapiens, BPH-1
> 5.12 µM and 2.43 µM: PA-1; pa-1
3.24 µM and > 5.12 µM: G-402; g-402
5.04 µM and > 5.12 µM: EFO-21; efo-21
4.3 µM: BPH-1; bph-1
3.29 µM and > 5.12 µM: HCC1569; hcc1569
3.17 µM: CAKI-1; Homo sapiens, CAKI-1
4.71 µM: CAKI-1; caki-1
0.938 µM: T47D; t47d
> 5.12 µM and 3.26 µM: U-118-MG; u-118-mg
4.21 µM: NCI-H520; Homo sapiens, NCI-H520
1.55 µM and 4.06 µM: LXF-289 cell line; lxf-289
